One compound from patent US12685779B2, “Complex” (UNITED IMMUNITY, CO., LTD., priority 2023, dated 2026) can be followed below.

The test system of data set [1] is human peripheral blood-derived TAMs (phagocytosis of HeLa cells). Briefly: Cancer cell phagocytosis test of human peripheral blood-derived TAMs. Format: cell-based. Conditions: 10 μM in terms of Telratolimod, 2 days, doxorubicin-treated HeLa cells, flow cytometry. The procedure: HeLa cells were labeled with fluorescent label 1 (CellTracker Green CMTPX Dye, ThermoFisher) for 30 minutes, then washed twice with PBS(−), and cultured overnight in medium (RPMI supplemented with 10% fetal bovine serum) containing 1.25 μM doxorubicin.
(§1) TAMs were prepared in the same manner as in Test Example 1, and Telratolimod or CHP:Telratolimod adjusted to a final concentration of 10 μM in terms of Telratolimod was added to the basal medium, followed by incubation for 2 days. After labeling with fluorescent labeling agent 2 (CellTracker Red CMTPX Dye, ThermoFisher) for 30 minutes, the cells were washed twice with PBS(−). The doxorubicin-treated HeLa cells were added at a half ratio to the TAMs and co-cultured overnight. The cells were then harvested, and the number of cells co-positive for fluorescent labels 1 and 2 was determined by flow cytometry. The control was supplemented with only medium.
Background: In flow cytometry, cells or beads pass a laser one at a time.

Data set [2] deals with cytokines in serum. Briefly: Evaluation of cytokine release in mouse allogeneic tumor transplantation model. It counts as in vivo, mice (C57BL/6JJmsSlc, female). The conditions noted are these: 84.5 μg i.v., blood after 2 hours, MC38-bearing mice. The procedure:
The allograft model mice used were 10 days after 10^6 cells of the mouse colorectal cancer cell line MC38 were administered intradermally into the dorsal skin of mice (C57BL/6JJmsSlc, female). The Telratolimod solution prepared in Test Example 4 and the CHP:Telratolimod solution prepared in Example 2 were each administered (amount of Telratolimod: 84.5 μg) via tail vein injection to 5 mice per group, and blood was collected after 2 hours. The serum was obtained by centrifugation, and changes in the amount of cytokines were measured using LEGENDplex Mouse Inflammation Panel (BioLegend). Significance tests were performed using one-way ANOVA (*P<0.05, **P<0.01, ***P<0.001, ****P<0.0001).

The test system of data set [3] is mouse colorectal cancer cell line CT26. Put plainly: Antitumor evaluation in mouse allogeneic tumor transplantation model (2). It counts as in vivo, mice (BALB/cCrSlc, female). The conditions noted are these: Telratolimod 42 μg i.v. days 7, 9, 11, 14, 16, 18, anti-PD-1 antibody 100 μg i.p. days 7, 11, 14, 18. The procedure: A mouse allogeneic tumor transplantation model was prepared by intradermally administering 10^6 cells of the mouse colorectal cancer cell line CT26 into the dorsal skin of mice (BALB/cCrSlc, female). On days 7, 9, 11, 14, 16, and 18 after cell transplantation, the CHP:Telratolimod solution prepared in Example 2 and the Telratolimod solution prepared in Test Example 4 were each administered via tail vein injection, and on days 7, 11, 14, and 18 after cell transplantation, an anti-PD-1 antibody (RMP1-14, Bio X Cell) solution was administered intraperitoneally, to 5 mice per group (amount of Telratolimod: 42 μg, amount of anti-PD-1 antibody: 100 μg). One group received a combination of the CHP:Telratolimod solution and the anti-PD-1 antibody. Tumor sizes were measured on days 7, 9, 11, 14, 16, 18, and 21. The tumor volume was calculated by (long axis×short axis×short axis)/2. The negative control is an untreated group.

Data set [4] deals with human peripheral blood-derived TAMs. Put plainly: Polarization test of human peripheral blood-derived TAMs (TNF-α ELISA). Format: cell-based. Conditions: 30 μM in terms of Telratolimod, 2 days incubation, culture supernatant. The procedure: (§2) Human peripheral blood-derived CD14-positive monocytes that had been cryopreserved in advance were awake and seeded in a 24-well tissue culture plate at 2×10^5 cells/well in 500 μL of basal medium (RPMI, 10% fetal bovine serum, 50 ng/mL M-CSF) and cultured for 3 days in a 37° C., 5% CO2 incubator, after which 500 μL of basal medium was further added, and the cells were cultured for 3 days. The medium was then replaced with 500 μL of TAM differentiation induction medium prepared by adding 10% fetal bovine serum, 50 ng/mL IL-4, 50 ng/mL IL-6, 50 ng/mL IL-10, 50 ng/mL IL-13, and 5% human AB type male donor defibrinated serum (Veritas) to a separately prepared culture supernatant of human cancer cells, and the cells were cultured for 2 days.
A Telratolimod solution or CHP:Telratolimod solution adjusted to a final concentration of 30 μM in terms of Telratolimod was added to the TAM prepared in Test Example 1, followed by incubation for 2 days, and TNF-α in the culture supernatant was measured by ELISA (BioLegend). The control was supplemented with only medium.
A general note: ELISA stands for enzyme-linked immunosorbent assay.

Data set [5] relates to reticulocytes. Put plainly: Blood test in mouse allogeneic tumor transplantation model. It counts as in vivo. The conditions noted are these: 84.5 μg i.v. on days 7, 9, 11; blood 1 day after final administration. Here is the method:
10^6 cells of the mouse colorectal cancer cell line MC38 were administered intradermally into the dorsal skin of mice (C57BL/6JJmsSlc, female). After 7 days, 9 days, and 11 days, the Telratolimod solution prepared in Test Example 4 and the CHP:Telratolimod solution prepared in Example 2 were each administered (amount of Telratolimod: 84.5 μg) via tail vein injection to 5 mice per group. One day after the final administration, blood was collected, and changes in red blood cell and reticulocyte counts were measured. Significance tests were performed using one-way ANOVA (*P<0.05, **P<0.01, ***P<0.001, ****P<0.0001).

Data set [6] relates to mouse colon cancer cell line MC38. Put plainly: Antitumor evaluation in mouse allogeneic tumor transplantation model (1). Format: in vivo, mice (C57BL/6JJmsSlc, female). The conditions noted are these: MC38, 84.5 μg Telratolimod i.v. on days 7, 9, 11, 14, 16, 18; day 19. The procedure: A mouse allogeneic tumor transplantation model was prepared by intradermally administering 10^6 cells of the mouse colon cancer cell line MC38 into the dorsal skin of mice (C57BL/6JJmsSlc, female). Mice on day 7 after cell administration were used. 84.5 μg of CHP:Telratolimod prepared in Example 2 or Telratolimod dissolved in a solubilizing solvent (17.1% polyethylene glycol 300, 4.3% Tween 80, and 8.6% polyoxyethylene hydrogenated castor oil) was administered via tail vein injection, and changes in the concentration of Telratolimod in the blood were measured. Blood was collected from 5 mice per group. After each test drug was administered via tail vein injection, 80 μL of isopropyl alcohol was added to 20 μL of serum collected after 1 minute, 30 minutes, 1 hour, 2 hours, and 6 hours, and bead crushing was performed for 1 minute using a 5 mm diameter stainless steel ball. […] The collected supernatant was analyzed by LS-MS/MS to measure the Telratolimod concentration. […]
An MC38 mouse allogeneic tumor transplantation model was prepared in the same manner as in Test Example 4. […] Tumor sizes were measured on days 7, 9, 11, 14, 16, 18, and 19. The tumor volume was calculated by (long axis×short axis×short axis)/2. […]

Data set [7] relates to human peripheral blood-derived M2-like macrophages. Briefly: Polarization test of human peripheral blood-derived M2-like macrophages (cytokine bead assay). It counts as cell-based. The conditions noted are these: 3 μM, 1 day, culture supernatant. Here is the method: as §2, with “M2-like macrophage” for “TAM”, “adding” for “adding 10% fetal bovine serum,”, “IL-10, and” for “IL-10,”, “IL-13” for “IL-13, and 5% human AB type male donor defibrinated serum (Veritas)”, “the basal medium,” for “a separately prepared culture supernatant of human cancer cells,”
A Telratolimod solution or CHP:Telratolimod solution adjusted to a final concentration of 3 μM in terms of Telratolimod was added to the M2-like macrophages prepared in Test Example 11, followed by incubation for 1 day, and TNF-α, IL-1β, IL-6, IL-12p40 (p40 subunit of IL-12), IL-23, and CXCL10 in the culture supernatant were measured using a flow cytometry bead assay kit (LEGENDplex™, BioLegend). The control was supplemented with only medium.

The nature of data set [8]: Examination of encapsulation of TLR7 and TLR8 agonists in CHP nanogel (Example 1). It counts as physicochemical. Conditions: CHP in 6 M urea in PBS(−), stepwise dialysis against PBS(−). The procedure: Nine TLR7 and TLR8 agonists (Telratolimod, Motolimod, Vesatolimod, Resiquimod, Imiquimod, CL075, CU-CPT17e, CU-CPT9a, and PF-4878691) were examined for whether they could be encapsulated in CHP nanogel. CHP was dissolved in a 6 M urea solution in PBS(−), and a compound solution was added thereto. Then, stepwise dialysis was performed against PBS(−).

For data set [9], the system named is macrophages infiltrating into the tumors (MC38). Briefly: Evaluation of TAM polarization in mouse allogeneic tumor transplantation model. Format: in vivo, mice. Conditions: MC38, 84.5 μg i.v. on days 7, 9, 11; tumors 1 day after final administration; flow cytometry. The procedure: An MC38 mouse allogeneic tumor transplantation model was prepared in the same manner as in Test Example 6, and on days 7, 9, and 11 after cell transplantation, the CHP:Telratolimod solution prepared in Example 2 and the Telratolimod solution prepared in Test Example 4 were each administered via tail vein injection to 5 mice per group (amount of Telratolimod: 84.5 μg). One day after the final administration, the tumors were excised, and macrophages infiltrating into the tumors were measured by flow cytometry. Significance tests were performed using one-way ANOVA (*P<0.05, **P<0.01, ***P<0.001, ****P<0.0001).

Data set [10] has as its system human peripheral blood-derived M2-like macrophages (phagocytosis of HeLa cells). Put plainly: Cancer cell phagocytosis test of human peripheral blood-derived M2-like macrophages. Format: cell-based. Conditions: 10 μM in terms of Telratolimod, 1 day, flow cytometry. The procedure: HeLa cells were labeled with fluorescent label 1 (CellTracker Green CMTPX Dye, ThermoFisher) for 30 minutes, then washed twice with PBS(−), and cultured overnight in medium (RPMI supplemented with 10% fetal bovine serum) containing 2.5 μM doxorubicin.
as §1, with “Telratolimod” for “TAMs were prepared in the same manner as in Test Example 1, and Telratolimod”, “and the M2-like macrophages prepared in Test Example 11 were incubated” for “followed by incubation”, “1 day.” for “2 days.”, “The” for “The doxorubicin-treated”, “M2-like macrophages” for “TAMs”

A short description of data set [11]: Blood concentration changes in mouse allogeneic tumor transplantation model. It counts as in vivo, mice (C57BL/6JJmsSlc, female). Conditions: 84.5 μg via tail vein injection, MC38-bearing mice, serum 1 min to 6 hours. Here is the method:
A mouse allogeneic tumor transplantation model was prepared by intradermally administering 10^6 cells of the mouse colon cancer cell line MC38 into the dorsal skin of mice (C57BL/6JJmsSlc, female). Mice on day 7 after cell administration were used. 84.5 μg of CHP:Telratolimod prepared in Example 2 or Telratolimod dissolved in a solubilizing solvent (17.1% polyethylene glycol 300, 4.3% Tween 80, and 8.6% polyoxyethylene hydrogenated castor oil) was administered via tail vein injection, and changes in the concentration of Telratolimod in the blood were measured. Blood was collected from 5 mice per group. After each test drug was administered via tail vein injection, 80 μL of isopropyl alcohol was added to 20 μL of serum collected after 1 minute, 30 minutes, 1 hour, 2 hours, and 6 hours, and bead crushing was performed for 1 minute using a 5 mm diameter stainless steel ball. Further, 400 μL of an 80% isopropyl alcohol and 20% acetonitrile solution was added and mixed, followed by sonication for 3 minutes, and centrifugation at 12000 g for 5 minutes to collect the supernatant. The collected supernatant was analyzed by LS-MS/MS to measure the Telratolimod concentration. […]

SMILES strings stand for the structures.

In data set [1], `CCCCCCCCCCCCCCCCCC(=O)NCCCCOn1c(CCCC)nc2c(N)nc3ccccc3c21` [Telratolimod] gave a Phagocytosis rate of 5.5%. Further, in [2], the IFN-β in serum entry was “rapid increases”, the IL-6 in serum entry is “rapid increases” and the MCP-1 in serum entry was “rapid increases”. The “antitumor effect (tumor volume)” value in [3] is on record as “limited”. The compound also gave a TNF-α in [4] of 700 pg/mL. For the same compound, the “change in reticulocytes (bone marrow toxicity indicator)” value in [5] is “significant decrease”. In data set [6], the “growth inhibition compared to the solvent control” value turned out to be 49%. Further, in [7], the CXCL10 worked out at 140 ± 20 pg/mL, the IL-1β worked out at 2.3 ± 0.64 pg/mL, the IL-6 is on record as 3100 ± 380 pg/mL and the IL-12p40 was found to be 59 ± 22 pg/mL. In addition, in [7], the IL-23 was found to be 1.4 ± 0.35 pg/mL and the TNF-α was determined as 40 ± 7.3 pg/mL. For the same compound, in data set [8], the “whether the compound could be encapsulated in CHP nanogel and formed into a solution” value was “could be stably encapsulated in the CHP nanogel and formed into a solution”. Further, in data set [9], the “expression of ARG1 (M2-like macrophage marker)” value is listed as “tended to decrease” and the “expression of iNOS (M1-like macrophage marker)” value is “significantly increased”. The Phagocytosis rate in [10] is 9.7%. Also, in [11], the “blood concentration of Telratolimod over time” value is “rapidly decreased within 30 minutes after administration”.
